Values quoted from earlier work as cited in patent US20120136048A1, “TOPICAL, PERIOCULAR, OR INTRAOCULAR USE OF TOCOTRIENOLS FOR THE TREATMENT OF OPHTHALMIC DISEASES” (priority 2009, published 2012).

Conditions: rat ocular tissues, every tissue to which it was administered

SMILES | concentration in ocular tissues after topical ophthalmic administration
Cc1c(C)c2c(c(C)c1O)CC[C@@](C)(CCC[C@H](C)CCC[C@H](C)CCCC(C)C)O2 [alpha-tocopherol] | no significant increase
CC(C)=CCC/C(C)=C/CC/C(C)=C/CC[C@]1(C)CCc2c(C)c(O)c(C)c(C)c2O1 [alpha-tocotrienol, Alpha-Tocotrienol] | increased markedly
